Laboratory results as given in PubChem BioAssay (NCI).
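Values below derive from 48-hour exposures of cells grown in 96-well plates, with endpoints linearly interpolated between the two concentrations bracketing the appropriate inhibition level. TGI: total growth inhibition.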

Assays:
Test in all cases: NCI tumour cell line growth inhibition, 48 h
HCC-2998 colon = system: HCC-2998 colon
IGROV1 ovarian = system: IGROV1 ovarian
DMS 114 small cell lung = system: DMS 114 small cell lung
COLO 205 colon = system: COLO 205 colon
HCT-116 colon = system: HCT-116 colon
M19-MEL melanoma = system: M19-MEL melanoma
CCRF-CEM leukemia = system: CCRF-CEM leukemia
SK-MEL-5 melanoma = system: SK-MEL-5 melanoma
XF 498 CNS = system: XF 498 CNS
SK-MEL-28 melanoma = system: SK-MEL-28 melanoma
SF-268 CNS = system: SF-268 CNS
OVCAR-8 ovarian = system: OVCAR-8 ovarian
HL-60(TB) leukemia = system: HL-60(TB) leukemia
MOLT-4 leukemia = system: MOLT-4 leukemia
SF-295 CNS = system: SF-295 CNS
K-562 leukemia = system: K-562 leukemia
DMS 273 small cell lung = system: DMS 273 small cell lung
DLD-1 colon = system: DLD-1 colon
SNB-78 CNS = system: SNB-78 CNS
SK-OV-3 ovarian = system: SK-OV-3 ovarian
HOP-18 NSCLC = system: HOP-18 NSCLC
HT29 colon = system: HT29 colon
SK-MEL-2 melanoma = system: SK-MEL-2 melanoma
A549 NSCLC = system: A549 NSCLC
NCI/ADR-RES ovarian = system: NCI/ADR-RES ovarian
SNB-19 CNS = system: SNB-19 CNS
SN12K1 renal = system: SN12K1 renal
UACC-257 melanoma = system: UACC-257 melanoma
MALME-3M melanoma = system: MALME-3M melanoma
EKVX NSCLC = system: EKVX NSCLC
P388 leukemia = system: P388 leukemia
NCI-H460 lung = system: NCI-H460 lung
UACC-62 melanoma = system: UACC-62 melanoma
SW-620 colon = system: SW-620 colon
KM12 colon = system: KM12 colon
A498 renal = system: A498 renal
RXF 393 renal = system: RXF 393 renal
OVCAR-5 ovarian = system: OVCAR-5 ovarian
RPMI-8226 leukemia = system: RPMI-8226 leukemia
NCI-H226 lung = system: NCI-H226 lung
SNB-75 CNS = system: SNB-75 CNS
UO-31 renal = system: UO-31 renal
MCF7 breast = system: MCF7 breast
HCT-15 colon = system: HCT-15 colon
HOP-92 NSCLC = system: HOP-92 NSCLC
HOP-62 NSCLC = system: HOP-62 NSCLC
SF-539 CNS = system: SF-539 CNS
U251 CNS = system: U251 CNS
SN12C renal = system: SN12C renal
KM20L2 colon = system: KM20L2 colon
NCI-H23 lung = system: NCI-H23 lung
OVCAR-3 ovarian = system: OVCAR-3 ovarian
OVCAR-4 ovarian = system: OVCAR-4 ovarian
P388/ADR leukemia = system: P388/ADR leukemia
LOX IMVI melanoma = system: LOX IMVI melanoma
NCI-H522 lung = system: NCI-H522 lung

Cc1c2c(cc3c1[nH]c1ccccc13)C(c1ccc(Cl)cc1)=NCC2
TGI (HCC-2998 colon): 10.7 µM
TGI (IGROV1 ovarian): 24.1 µM
TGI (DMS 114 small cell lung): 3.87 µM
TGI (COLO 205 colon): 13.2 µM
TGI (HCT-116 colon): 12.7 µM
TGI (M19-MEL melanoma): 88.8 µM
TGI (CCRF-CEM leukemia): 8.54 µM
TGI (SK-MEL-5 melanoma): 3.83 µM
TGI (XF 498 CNS): 0.0949 µM
TGI (SK-MEL-28 melanoma): 61.2 µM
TGI (SF-268 CNS): 22 µM
TGI (OVCAR-8 ovarian): 7.14 µM
TGI (HL-60(TB) leukemia): 0.717 µM
TGI (MOLT-4 leukemia): 1.79 µM
TGI (SF-295 CNS): 0.718 µM
TGI (K-562 leukemia): 8.87 µM
TGI (DMS 273 small cell lung): 2.62 µM
TGI (DLD-1 colon): 19 µM
TGI (SNB-78 CNS): 27.1 µM
TGI (SK-OV-3 ovarian): 9.23 µM
TGI (HOP-18 NSCLC): 10.6 µM
TGI (HT29 colon): 0.687 µM
TGI (SK-MEL-2 melanoma): 7.9 µM
TGI (A549 NSCLC): 11.8 µM
TGI (NCI/ADR-RES ovarian): 1.39 µM
TGI (SNB-19 CNS): 1.72 µM
TGI (SN12K1 renal): 0.829 µM
TGI (UACC-257 melanoma): 43.9 µM
TGI (MALME-3M melanoma): 55.9 µM
TGI (EKVX NSCLC): 35.1 µM
TGI (P388 leukemia): 1.47 µM
TGI (NCI-H460 lung): 1.33 µM
TGI (UACC-62 melanoma): 17.6 µM
TGI (SW-620 colon): 19 µM
TGI (KM12 colon): 18.2 µM
TGI (A498 renal): 10.2 µM
TGI (RXF 393 renal): 2.45 µM
TGI (OVCAR-5 ovarian): 33.7 µM
TGI (RPMI-8226 leukemia): 8.23 µM
TGI (NCI-H226 lung): 6.82 µM
TGI (SNB-75 CNS): 1.42 µM
TGI (UO-31 renal): 8.99 µM
TGI (MCF7 breast): 7.32 µM
TGI (HCT-15 colon): 9.89 µM
TGI (HOP-92 NSCLC): 30.8 µM
TGI (HOP-62 NSCLC): 11.2 µM
TGI (SF-539 CNS): 2.53 µM
TGI (U251 CNS): 5.7 µM
TGI (SN12C renal): 3.46 µM
TGI (KM20L2 colon): 0.809 µM
TGI (NCI-H23 lung): 2.98 µM
TGI (OVCAR-3 ovarian): 1.78 µM
TGI (OVCAR-4 ovarian): 6.49 µM
TGI (P388/ADR leukemia): 18.4 µM
TGI (LOX IMVI melanoma): 11.4 µM
TGI (NCI-H522 lung): 4.45 µM
